Here are results for 8 molecules from US20260131033A1, “RADIOLABELED FRUCTOSE DERIVATIVES FOR MEDICAL IMAGING” (Yellowbird Diagnostics Inc., priority 2023, published 2026).

Data set [1] relates to HepG2 human hepatocarcinoma cells. The data set can be described thus: Tracing of [U^13C]-fructose analog metabolism in vitro by LC-MS. The class given is cell-based. The conditions noted are these: for metabolic fate / main ^13C-labelled cellular product / metabolism through the polyol pathway: 25 mM ^13C-labelled analog; for formation of glucose-6-phosphate: polyol pathway. As to the method: In order to characterize the structure-activity effect of fructose deoxyfluorination on metabolic flux, the metabolism of isotopically labelled [U^13C]-fructose, and [U^13C]-1-, [U^13C]-6-, and [U^13C]-4-FDF deoxyfluorinated fructose analogs was evaluated in vitro in HepG2 human hepatocarcinoma cells by mass spectrometry (FIGS. 3A-3G). HepG2 were chosen as a model cell line due to a recent report by Tee et al. outlining their propensity for fructolysis (Tee, S. S. et al., 2022). [U^13C]-1- and [U^13C]-6-FDF were synthesized according to previously published methods (Haradahira, T. et al., 1995; Wuest, M. et al., 2011), and [U^13C]-4-FDF was synthesized as described hereinabove (Scheme 3).
Tracing of [U^13C]-fructose metabolism in vitro. Human hepatocellular carcinoma cells (HepG2) were grown in Dulbecco's modified Eagle medium (DMEM) supplemented with 10% heat-inactivated fetal bovine serum (FBS) and 1% penicillin-streptomycin (P/S) until 80% confluent under cell culture conditions (37° C., 5% CO2, humidified), at which point they were passaged. Cells were passaged three times before being seeded in to a 6-well plate and grown until 80% confluent. Supplemented media was aspirated and replaced with lactated Ringer's buffer (LRB) alone or containing 25 mM [U^13C]-1-FDF, [U^13C]-4-FDF, or [U^13C]-6-FDF. Cells were incubated under cell culture conditions for 0, 15, 30, or 60 min. Following incubation, the plates were placed on ice and wells were aspirated. Wells were washed three times with ice-cold ammonium formate buffer (150 mM, pH 7.4) to remove unbound probe. A chilled (−20° C.) solution of 1:1 methanol:water was added to the wells and cells were scraped off of the wells into the solution. This solution was collected into bead-beater tubes containing 6 beads and stored at −80° C. until further analysis was performed.
Levels of fructose metabolites were assessed by liquid chromatography mass spectrometry (LC-MS). Sample temperature was maintained on ice or dry ice where possible, and all solvents were MS grade and pre-equilibrated to −20° C.
Metabolite extraction. Cell pellets were collected to a pre-chilled 2 mL tube containing 6 washed ceramic beads (1.4 mm). 380 μl of methanol:water (1:1) was added in the tube and kept in −80° C. until the day of metabolite extraction. On the day of extraction, samples were vortexed for 10 s and cell lysis was done by beating for 60 s at 2000 rpm (bead beating was done twice) after adding 220 μL of acetonitrile. Samples were then incubated with a 2:1 dichloromethane:water solution on ice for 10 minutes. The polar and non-polar phases were separated by centrifugation at 4000 g for 10 minutes at 1° C. The resulting upper phase, consisting of polar metabolites was dried with a refrigerated (−4° C.) centrivap concentrator (Labconco) and stored at −80° C. before LC-MS analyses.
LC-MS metabolite quantification. Samples to be injected in -ESI were re-suspended with 75% acetonitrile, cleared by centrifugation and run on an Agilent 6545B Q-TOF mass spectrometer equipped with a 1290 Infinity II ultra-high performance LC (Agilent Technologies). Continuous internal mass calibration was executed using signals from purine [12,000 full width at half maximum (FWHM) resolution] and hexakis (1H,1H,3H-tetrafluoropropoxy) phosphazine (24,000 FWHM resolution). All study samples were randomized before analysis and run using both high and low pH hydrophilic interaction chromatography (HILIC-Z) in negative ionization mode. HILIC separation was obtained using the Poroshell 120 HILIC-Z column (2.1 100 mm, […]; Agilent) and corresponding guard column. The chromatographic conditions and mass spectrometry acquisition parameters were as described elsewhere (Zhu, Z. et al., 2023). Metabolite identification was confirmed by exact mass, retention time and subsequent MS/MS fragmentation for where standards are available. For the fluoro-fructose labelled metabolites, exact mass and MS/MS was considered for metabolite confirmation. […]

The conditions of data set [2]: Wuest, M. et al., 2018; cited from earlier work.
Data set [3] concerns heterotopic HepG2 xenograft mouse model. The data set can be described thus: Comparative PET/CT biodistribution in heterotopic HepG2 xenograft mouse model. It counts as in vivo. The procedure:
After the confirmation of cell uptake and intracellular trapping of [U^13C]4-FDF, and the successful production of the radiofluorinated analog, the biodistribution of [^18F]4-FDF was evaluated in a heterotopic HepG2 xenograft mouse model and compared to the biodistribution of [^18F]6-FDF and [^18F]FDG. PET/CT images shown are the summed images from 20-45 min after intravenous injection of (FIG. 4A) [^18F]4-FDF, (FIG. 4B) [^18F]6-FDF, or (FIG. 4C) [^18F]FDG. Sagittal, coronal, and maximum intensity projection (MIP) are shown, in addition to axial sections at the level of the brain, heart, liver/kidneys, and hips. […] Purple represents an increase in AUC and blue represents a decrease in AUC. The values are normalized fold-change in AUC.
Eight-week-old female nu/nu mice were inoculated with 10×10^6 HepG2 cells suspended in 50% Matrigel:DMEM subcutaneously under the left shoulder. Within 3-weeks of implantation, mice were imaged by PET/CT.
PET/CT Imaging. PET/CT imaging was carried out on a Bruker Si78PET/CT scanner with a 4-position hotel having adjustable isoflurane and respiratory monitoring for each position (Bruker USA). Tail veins were catheterized, and an anatomical CT was acquired over the whole of the mouse bodies using the “rat” settings. PET acquisition was started just prior to a bolus i.v. injection of approximately 200 μCi of radiotracer. Dynamic scans were acquired in list mode format over 45 min and sorted into 16×0.5-mm sinogram bins for image reconstruction (4×15 s, 4×60 s and 8×300 s). Iterative reconstruction was performed using 3D ordered-subsets expectation maximization (3D-OSEM) followed by fast maximum a posteriori (fastMAP) using Paravision 360 software v.3.4 (Bruker, USA). Four-mouse images were split into individual mice, and the bed was removed using PMOD v (Bruker, USA). VivoQuant v.2022 (InviCRO) was used for visualization of radioradiotracer uptake in tissues, to define the three-dimensional (3D) volumes of interest (VOI) and for 3D-visualisation to create volume rendering technique images. The count densities were averaged for all volumes of interest at each time point to obtain a time versus activity curve (TAC). Tumor and tissue TACs were normalized to injected dose, measured by a CRC-15 PET dose calibrator (Capintec, Inc., NJ, USA), and expressed as percentage injected dose per cubic centimeter of tissue (% ID/cc).

Data set [4] in a line: Time-course PET/CT biodistribution and TACs in fed or fasted mice. The following applies: Balb/C mice freely fed or overnight fasted, ~7.4 MBq i.v., 60 min PET/CT.
Protocol: Animals received ˜7.4 MBq i.v. immediately upon the initiation of image acquisition, which continued for 60 min. The dynamic scan was binned according to the times indicated.
Solid line=mean; Shaded region=standard deviation. Regions of interest were drawn over the tissues of interest, and the activity within that region of interest of known volume were plotted over the timecourse of the 60 min PET/CT acquisition.

Take `O=C(CF)[C@@H](O)[C@H](O)[C@H](O)CO` [[U^13C]-1-FDF, [U^13C]-1-fluoro-1-deoxyfructose]: in data set [1] (mass spectrometry), the “metabolic fate / main ^13C-labelled cellular product” value is “majority of the ^13C-labelled cellular product being [U^13C]-deoxyfluorolactate”, the “metabolism through the polyol pathway” value is given as “limited metabolism through the polyol pathway” and the “metabolic trapping in the cell” value is “neither [U^13C]-1- (FIG. 3E) nor [U^13C]-6-FDF are metabolically trapped”.

Consider `O=C(CO)[C@@H](O)[C@H](F)[C@H](O)CO` [[U^13C]-4-FDF, [U^13C]-4-fluoro-4-deoxyfructose], for which, in data set [1] (mass spectrometry), the “metabolic fate / main ^13C-labelled cellular product” value was “metabolism halted at [U^13C]-4-fluorodeoxy-1-phosphate”, the “metabolism through the polyol pathway” value was “capable of proceeding through the polyol pathway”, the “accumulation of fluorodeoxyfructose-1,6-bisphosphate” value is “accumulation of [U^13C]-4-fluorodeoxyfructose-1,6-bisphophate” and the “metabolic trapping in the cell” value is “unique ability to be trapped within cells”. For the same molecule, the “time course of metabolite generation” value in data set [1] (over 60 min of incubation) was “steady-state accumulation of [U^13C]-4-fluorodeoxyfructose-1-phosphate and [U^13C]-4-fluorodeoxyfructose-1,6-bisphosphate, and increase in [U^13C]-4-fluorodeoxysorbitol”. Moreover, the “formation of glucose-6-phosphate” value in data set [1] is on record as “did not form detectable amounts of glucose-6-phosphate”.

Turning to `O=C(CO)[C@@H](O)[C@H](O)[C@H](O)CF` [[U^13C]-6-FDF, [U^13C]-6-fluoro-6-deoxyfructose], in data set [1] (mass spectrometry), the “metabolic fate / main ^13C-labelled cellular product” value is “substantial amount of [U^13C]-deoxyfluorolactate production”, the “metabolism through the polyol pathway” value is recorded as “capable of proceeding through the polyol pathway” and the “metabolic trapping in the cell” value was “neither [U^13C]-1- (FIG. 3E) nor [U^13C]-6-FDF are metabolically trapped”. In addition, in data set [1], the “formation of glucose-6-phosphate” value is given as “did not form detectable amounts of glucose-6-phosphate”.

`O=[13C]([13CH2]O)[13C@@H](O)[13C@H](O)[13C@H](O)[13CH2]O` [[U^13C]-fructose]: the “metabolic fate / main ^13C-labelled cellular product” value in data set [1] (mass spectrometry) was “metabolized as expected through both fructolytic and polyol pathways”.

In the case of `O=C(CF)[C@@H](O)[C@H](O)[C@H](O)CO` [[^18F]1-FDF, 1-deoxy-1-fluoro-fructose], the “retention in cells in vitro and in vivo” value in data set [2] is “poorly retained in cells in vitro and in vivo”.

In turn, `O=C(CO)[C@@H](O)[C@H](O)[C@H](O)C[18F]` [[^18F]6-FDF, [^18F]-6-fluoro-6-deoxyfructose] registered a bone uptake in data set [3] (HepG2 xenograft mice, PET/CT) of over 7 % ID/g. The “bone uptake over time” value in data set [3] (HepG2 xenograft mice, TAC) is listed as “continued to increase overtime”. Besides, the “tumor accumulation / pattern of radiotracer retention” value in data set [3] (HepG2 xenograft mice, intravenous injection, PET/CT) is reported as “similarly observed”. Moreover, the “bone uptake, fold higher than [^18F]4-FDF” value in data set [3] (HepG2 xenograft mice, normalized to [^18F]4-FDF) was found to be 3.69 fold.

Turning to `O=C(CO)[C@@H](O)[C@@H]([18F])[C@H](O)CO` [[^18F]-4-fluoro-4-deoxytagatose], in data set [4], the bone uptake entry is reported as “significant bone uptake that is retained overtime” and the route of clearance result is “main route of clearance is the kidney”.

For the molecule “[^18F]-2-fluoro-2-deoxy-D-glucose [[^18F]FDG]”, in data set [3] (brain, normalized to AUC of [^18F]4-FDF), the “area under the time activity curve (AUC) in brain, fold greater than [^18F]4-FDF” value was found to be 6.01 fold. Also, in data set [3] (healthy brain and heart, PET/CT), the “uptake in brain and heart in the absence of disease” value is given as “high”. Besides, in data set [3] (heart, normalized to AUC of [^18F]4-FDF), the “area under the time activity curve (AUC) in heart, fold greater than [^18F]4-FDF” value is 5.29 fold.
